Measurements taken from PMC6264464, “Synthesis and Antifungal Activity of Novel Sulfone Derivatives Containing 1,3,4-Oxadiazole Moieties” (Molecules, 2011).
≈ marks a conversion by molar mass, not a printed value. Like-named read-outs stand apart in the source and are kept apart here.

Experiments:
[1] = system: F. oxysporum; assay: Mycelial growth rate / poison plate antifungal test; assay type: cell-based; conditions: Fusarium oxysporum; for inhibition at 50 µg/mL: 120 h, read-out: Inhibition (%) F. oxysporum; for EC50: read-out: EC50 (µg/mL) F. oxysporum
[2] = system: C. mandshurica; assay: Mycelial growth rate / poison plate antifungal test; assay type: cell-based, Cytospora mandshurica; conditions: Cytospora; for inhibition at 50 µg/mL: 120 h, read-out: Inhibition (%) C. mandshurica; for EC50: read-out: EC50 (µg/mL) C. mandshurica
[3] = system: S. sclerotiorum; assay: microbe, parasite or virus in culture; assay type: cell-based; conditions: Sclerotinia sclerotiorum, read-out: EC50 (µg/mL) S. sclerotiorum
[4] = system: B. cinerea; assay: microbe, parasite or virus in culture; assay type: cell-based; conditions: Botrytis cinerea, read-out: EC50 (µg/mL) B. cinerea
[5] = system: R. solani; assay: microbe, parasite or virus in culture; assay type: cell-based; conditions: Rhizoctonia solani, read-out: EC50 (µg/mL) R. solani
[6] = system: T. cucumeris; assay: microbe, parasite or virus in culture; assay type: cell-based; conditions: Thanatephorus cucumeris, read-out: EC50 (µg/mL) T. cucumeris
[7] = system: C. gloeosporioides; assay: microbe, parasite or virus in culture; assay type: cell-based; conditions: Colletotrichum gloeosporioides, read-out: EC50 (µg/mL) C. gloeosporioides
[8] = system: P. infestans; assay: microbe, parasite or virus in culture; assay type: cell-based; conditions: Phytophthora infestans, read-out: EC50 (µg/mL) P. infestans
[9] = at 50 µg/mL, PDA, 27 ± 1 °C, 5 days

Compound	inhibition at 50 µg/mL [1, 9]	melting point	inhibition at 50 µg/mL [2, 9]	EC50 [3]	EC50 [1]	EC50 [4]	EC50 [5]	EC50 [6]	EC50 [2]	EC50 [7]	EC50 [8]	inhibition at 50 µg/mL [1]	inhibition at 50 µg/mL [2]
CS(=O)(=O)c1nnc(-c2c(F)cccc2Cl)o1 [Compound 5j, 2-(Methylsulfonyl)-5-(2-chloro-6-fluorophenyl)-1,3,4-oxadiazole]	67.1 ± 4.8%	121 to 123 °C	64 ± 2.6%	–	–	–	–	–	–	–	–	–	–
CS(=O)(=O)c1nnc(-c2ccc(F)c(F)c2F)o1 [Compound 5b, 2-(Methylsulfonyl)-5-(2,3,4-trifluorophenyl)-1,3,4-oxadiazole]	97.5 ± 3.3%	114 to 115 °C	89.7 ± 3.1%	–	–	–	–	–	–	–	–	–	–
CS(=O)(=O)c1nnc(-c2ccncc2)o1 [Compound 5c, 2-(Methylsulfonyl)-5-(pyridin-4-yl)-1,3,4-oxadiazole]	72.6 ± 6.4%	134 to 136 °C	78.2 ± 4.7%	–	–	–	–	–	–	–	–	–	–
CS(=O)(=O)c1nnc(-c2ccccc2C(F)(F)F)o1 [Compound 5a, 2-(Methylsulfonyl)-5-(2-(trifluoromethyl)phenyl)-1,3,4-oxadiazole]	71.1 ± 7.7%	102 to 104 °C	68.3 ± 9.3%	–	–	–	–	–	–	–	–	–	–
COc1ccccc1-c1nnc(S(C)(=O)=O)o1 [Compound 5g, 2-(Methylsulfonyl)-5-(2-methoxyphenyl)-1,3,4-oxadiazole]	89.6 ± 4.5%	127 to 129 °C	> 90%	–	–	–	–	–	–	–	–	–	–
CS(=O)(=O)c1nnc(-c2c(Cl)cccc2Cl)o1 [Compound 5f, 2-(Methylsulfonyl)-5-(2,6-dichlorophenyl)-1,3,4-oxadiazole]	94 ± 4.1%	126 to 128 °C	> 90%	17.2 ± 4.72 µg/mL (≈ 58.7 µM)	85.4 ± 17.9 µg/mL (≈ 291 µM)	8.03 ± 0.86 µg/mL (≈ 27.4 µM)	16.2 ± 9.76 µg/mL (≈ 55.1 µM)	25.2 ± 2.34 µg/mL (≈ 86.1 µM)	98.2 ± 8.35 µg/mL (≈ 335 µM)	33.1 ± 8.29 µg/mL (≈ 113 µM)	42.9 ± 7.38 µg/mL (≈ 146 µM)	–	–
CS(=O)(=O)c1nnc(-c2c(F)cccc2F)o1 [Compound 5e, 2-(Methylsulfonyl)-5-(2,6-difluorophenyl)-1,3,4-oxadiazole]	98.8 ± 8%	131 to 132 °C	> 90%	15 ± 6.83 µg/mL (≈ 57.5 µM)	65.8 ± 7.04 µg/mL (≈ 253 µM)	8.25 ± 0.85 µg/mL (≈ 31.7 µM)	21.2 ± 4.12 µg/mL (≈ 81.6 µM)	23.4 ± 4.76 µg/mL (≈ 89.7 µM)	38.3 ± 3.21 µg/mL (≈ 147 µM)	26.1 ± 7.32 µg/mL (≈ 100 µM)	59.5 ± 16.8 µg/mL (≈ 229 µM)	–	–
CS(=O)(=O)c1nnc(-c2ccccc2Br)o1 [Compound 5i, 2-(Methylsulfonyl)-5-(2-bromophenyl)-1,3,4-oxadiazole]	77 ± 6.6%	134 to 135 °C	79.6 ± 7.1%	14.8 ± 1.02 µg/mL (≈ 48.8 µM)	29.9 ± 1.31 µg/mL (≈ 98.6 µM)	21 ± 2.01 µg/mL (≈ 69.3 µM)	20 ± 1.28 µg/mL (≈ 66 µM)	24.8 ± 4.29 µg/mL (≈ 81.7 µM)	44.5 ± 3.56 µg/mL (≈ 147 µM)	21.9 ± 2.93 µg/mL (≈ 72.4 µM)	49.6 ± 9.39 µg/mL (≈ 164 µM)	–	–
Cc1cc(O)no1 [Hymexazol, reference compound]	–	–	–	7.76 ± 2.98 µg/mL (≈ 78.3 µM)	27.9 ± 1.02 µg/mL (≈ 282 µM)	25.2 ± 6.12 µg/mL (≈ 255 µM)	38.6 ± 0.45 µg/mL (≈ 390 µM)	32.2 ± 5.82 µg/mL (≈ 325 µM)	39.3 ± 2.79 µg/mL (≈ 396 µM)	37.6 ± 3.16 µg/mL (≈ 379 µM)	26.5 ± 1.42 µg/mL (≈ 267 µM)	58.4 ± 0.8%	57.3 ± 0.3%
CS(=O)(=O)c1nnc(-c2ccccc2F)o1 [Compound 5d, 2-(Methylsulfonyl)-5-(2-fluorophenyl)-1,3,4-oxadiazole]	70.1 ± 4.9%	97 to 99 °C	64 ± 1.3%	8.49 ± 3.51 µg/mL (≈ 35 µM)	29.1 ± 7.82 µg/mL (≈ 120 µM)	5.21 ± 2.05 µg/mL (≈ 21.5 µM)	6.43 ± 1.34 µg/mL (≈ 26.5 µM)	10 ± 5.64 µg/mL (≈ 41.3 µM)	79.9 ± 14.8 µg/mL (≈ 330 µM)	20.2 ± 6.65 µg/mL (≈ 83.5 µM)	14.7 ± 3.23 µg/mL (≈ 60.8 µM)	–	–
Cc1ccccc1-c1nnc(S(C)(=O)=O)o1 [Compound 5h, 2-(Methylsulfonyl)-5-(2-methylphenyl)-1,3,4-oxadiazole]	74.6 ± 8.5%	117 to 119 °C	> 90%	–	–	–	–	–	–	–	–	–	–
